Among the data in patent US9273057B2 (Bristol-Myers Squibb Company, priority 2012, dated 2016) are IC50 values, retold here.

The target of this assay is CK2A1 (CK2α/β) (Homo sapiens, UniProt P68400). Briefly: CK2 kinase assay, CK2A1 (CK2α/β). Particulars: Table A; read-out: CK2A1 (CK2α/β) (IC50). In kind it is biochemical.
Chain of CK2A1 (CK2α/β) (P68400 whole entry, species assumed): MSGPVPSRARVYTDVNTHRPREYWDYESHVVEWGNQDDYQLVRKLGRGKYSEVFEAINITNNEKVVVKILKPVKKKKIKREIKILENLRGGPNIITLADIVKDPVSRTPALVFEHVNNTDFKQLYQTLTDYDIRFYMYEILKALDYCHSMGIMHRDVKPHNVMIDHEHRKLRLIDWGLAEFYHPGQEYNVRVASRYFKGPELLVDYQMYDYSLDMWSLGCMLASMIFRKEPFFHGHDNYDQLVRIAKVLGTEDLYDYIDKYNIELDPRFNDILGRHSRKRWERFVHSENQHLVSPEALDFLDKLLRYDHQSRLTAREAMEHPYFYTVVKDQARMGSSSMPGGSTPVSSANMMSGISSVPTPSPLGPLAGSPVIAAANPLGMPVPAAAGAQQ
Chain of CK2A1 (CK2α/β) (P67870 whole entry partner, species assumed): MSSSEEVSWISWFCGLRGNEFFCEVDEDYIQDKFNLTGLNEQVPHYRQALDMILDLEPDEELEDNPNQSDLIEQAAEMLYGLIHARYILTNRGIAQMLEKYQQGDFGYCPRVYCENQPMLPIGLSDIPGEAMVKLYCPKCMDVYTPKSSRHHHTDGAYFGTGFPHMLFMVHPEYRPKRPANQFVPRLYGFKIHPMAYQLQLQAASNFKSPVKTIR
Take `N#Cc1cc(Nc2nc(NC3CC3)c3ncc(C#N)n3n2)c(Cl)c(C2CCN(C3CCC3=O)CC2)c1` (stereo not shown) [Example 644, 2-((2-chloro-5-cyano-3-(1-(2-oxocyclobutyl)piperidin-4-yl)phenyl)amino)-4-(cyclopropylamino)imidazo[2,1-f][1,2,4]triazine-7-carbonitrile]: the IC50 stood at 0.85 nM.

In the case of `CCN(C1CCN(c2cc(C#N)cc(Nc3nc(NC4CC4)c4ncc(C#N)n4n3)c2Cl)CC1)C1CC(=O)N(C)C1` (stereo not shown) [Example 715, 2-[(2-chloro-5-cyano-3-{4-[ethyl(1-methyl-5-oxopyrrolidin-3-yl)amino]piperidin-1-yl}phenyl)amino]-4-(cyclopropylamino)imidazo [2,1-f][1,2,4]triazine-7-carbonitrile], the IC50 is 10.8 nM.

Turning to `N#Cc1cc(Nc2nc(NC3CC3)c3ncc(C#N)n3n2)c(Cl)c(N2CCN(C(=O)CO)CC2)c1` [Example 78, 2-(2-chloro-5-cyano-3-(4-(2-hydroxyacetyl)piperazin-1-yl)phenylamino)-4-(cyclopropylamino) imidazo[1,2-f][1,2,4] triazine-7-carbonitrile], the IC50 is 0.41 nM.

Regarding `CC(=O)N1CCC2(CCN(c3cc(C#N)cc(Nc4nc(NC5CC5)c5ncc(C#N)n5n4)c3Cl)CC2)C1` [Example 786, 2-((3-(2-acetyl-2,8-diazaspiro[4.5]decan-8-yl)-2-chloro-5-cyanophenyl)amino)-4-(cyclopropylamino)imidazo[2,1-f][1,2,4]triazine-7-carbonitrile], the IC50 is 1.41 nM.

On to `COC(=O)N[C@@H]1CCCN(c2cc(C#N)cc(Nc3nc(NC4CC4)c4ncc(C#N)n4n3)c2Cl)C1` [Example 41, methyl ((3R)-1-(2-chloro-5-cyano-3-((7-cyano-4-(cyclopropylamino)imidazo [2,1-f][1,2,4]triazin-2-yl)amino)phenyl)-3-piperidinyl)carbamate], for which the IC50 worked out at 0.94 nM.

For the molecule `CC(=O)N1CCC[C@H]1C(=O)N1CCN(c2cc(C#N)cc(Nc3nc(NC4CC4)c4ncc(C#N)n4n3)c2Cl)CC1` [Example 83, 2-((3-(4-(1-acetyl-L-prolyl)-1-piperazinyl)-2-chloro-5-cyanophenyl)amino)-4-(cyclopropylamino) imidazo[2,1-f][1,2,4] triazine-7-carbonitrile], the IC50 came to 0.63 nM.

Consider `N#Cc1cc(Nc2nc(NC3CC3)c3ncc(C#N)n3n2)c(Cl)c(N2CCN(C3CN(C(=O)C4CCOC4)C3)CC2)c1` (stereo not shown) [Example 523, 2-[(2-chloro-5-cyano-3-{4-[1-(oxolane-3-carbonyl)azetidin-3-yl]piperazin-1-yl}phenyl)amino]-4-(cyclopropylamino)imidazo[2,1-f][1,2,4]triazine-7-carbonitrile], for which the IC50 came out at 4.77 nM.

With `N#Cc1cc(Nc2nc(NC3CC3)c3ncc(C#N)n3n2)c(Cl)c(N2CCN(C3CN(C(=O)[C@@H]4C[C@H](F)CN4)C3)CC2)c1` [Example 503, 2-{[2-chloro-5-cyano-3-(4-{1-[(2S,4S)-4-fluoropyrrolidine-2-carbonyl]azetidin-3-yl}piperazin-1-yl)phenyl]amino}-4-(cyclopropylamino)imidazo[2,1-f][1,2,4]triazine-7-carbonitrile], the IC50 turned out to be 3.67 nM.

Regarding `CCNc1nc(Nc2cc(C#N)cc(N3CCN(C4CN(C)C4)CC3)c2Cl)nn2c(C#N)cnc12` [Example 583, 2-({2-chloro-5-cyano-3-[4-(1-methylazetidin-3-yl)piperazin-1-yl]phenyl}amino)-4-(ethylamino)imidazo [2,1-f][1,2,4]triazine-7-carbonitrile], the IC50 amounted to 2.9 nM.

As for `CCNc1nc(Nc2cc(C#N)cc(N3CC[C@@H](NC(=O)OC)[C@H](O)C3)c2F)nn2c(C#N)cnc12` [Example 381, methyl ((3R,4R)-1-(5-cyano-3-((7-cyano-4-(ethylamino)imidazo[2,1-f][1,2,4]triazin-2-yl)amino)-2-fluorophenyl)-3-hydroxypiperidin-4-yl)carbamate], the IC50 stood at 0.53 nM.
